Laboratory results from PubChem BioAssay (NCI).
Where “and” joins values, the source holds several entries; their conditions need not be identical. Identical values can stand only once.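 Values below derive from 48-hour exposures of cells grown in 96-well plates, with endpoints linearly interpolated between the two concentrations bracketing the appropriate inhibition level. Abbreviation: GI50, concentration required for 50% inhibition of growth. TGI denotes the concentration required for complete inhibition of growth.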 Where a SMILES comes first, the peptide text is derived from it.

Tests used:
Assay in all cases: inhibition of tumour cell growth, NCI panel, 48 h
CAKI-1 renal = system: CAKI-1 renal
HOP-92 NSCLC = system: HOP-92 NSCLC
HT29 colon = system: HT29 colon
OVCAR-5 ovarian = system: OVCAR-5 ovarian
RXF 393 renal = system: RXF 393 renal
SF-268 CNS = system: SF-268 CNS
SF-539 CNS = system: SF-539 CNS
SK-MEL-2 melanoma = system: SK-MEL-2 melanoma
M14 melanoma = system: M14 melanoma
MDA-MB-231 breast = system: MDA-MB-231 breast
SR leukemia = system: SR leukemia
T-47D breast = system: T-47D breast

Row | SMILES | TGI (CAKI-1 renal) | TGI (HOP-92 NSCLC) | TGI (HT29 colon) | TGI (OVCAR-5 ovarian) | TGI (RXF 393 renal) | TGI (SF-268 CNS) | TGI (SF-539 CNS) | TGI (SK-MEL-2 melanoma) | TGI (M14 melanoma) [µM] | TGI (MDA-MB-231 breast) [µM] | TGI (SR leukemia) [µM] | TGI (T-47D breast) [µM] | GI50 (OVCAR-5 ovarian) [µM] | GI50 (SF-268 CNS) [µM] | GI50 (SK-MEL-2 melanoma) [µM] | GI50 (CAKI-1 renal) [µM] | GI50 (HOP-92 NSCLC) [µM] | GI50 (HT29 colon) [µM] | GI50 (RXF 393 renal) [µM]
1 | CC1C(=O)CC(c2cccs2)N(N=O)C1c1cccs1 (centres undefined) | > 100 µM | 83.3 µM | > 59.1 µM | > 100 µM | 81.1 µM | > 100 µM | > 100 µM | > 92.3 µM |  |  |  |  |  |  |  |  |  |  | 
2 | N#CC1=C2SCCN2C(=O)C(C#N)C12CCCCC2 (centres undefined) | > 100 µM | > 100 µM | > 100 µM | > 100 µM | > 100 µM | > 100 µM | > 100 µM | > 100 µM | > 100 | > 100 | > 100 | > 100 |  |  |  |  |  |  | 
3 | CN(Cc1cn(O)c2nc(=N)nc(N)c-2n1)c1ccc(C(=O)NC23CC4CC(CC(C4)C2)C3)cc1 | > 100 µM |  |  | > 100 µM | 94.9 µM | 81.4 µM |  | > 100 µM | > 100 | > 100 | > 100 | > 100 |  |  |  |  |  |  | 
4 | CN(C)CCNC(=O)c1cc(Cl)cc2cc3ccccc3nc12 |  |  | 2.41 µM | 1.97 µM | 2.81 µM | 4.53 µM | 3.84 µM | 3.76 µM |  |  |  |  |  |  |  |  |  |  | 
5 | CCOC(=O)CCC(C(=O)OCC)n1nc2ccc(Nc3c(C)[n+]([O-])c4cc(F)c(OCC)cc4[n+]3[O-])cc2n1 (centres undefined) | > 100 µM | 87.8 µM | > 100 µM | > 100 µM | 32.5 µM | 37.6 µM | 63.1 µM | > 100 µM | > 100 |  | > 100 | > 100 |  |  |  |  |  |  | 
6 | NC(=O)C1CCCN1C(=O)C(N)Cc1ccccc1 (stereo not drawn) (H-Phe-Pro-NH2; configuration not given here) | > 100 µM |  | > 100 µM | > 100 µM |  | > 100 µM |  |  | > 100 | > 100 | > 100 | > 100 |  |  |  |  |  |  | 
7 | NC(CCOCCP(=O)(O)CCC1C=CC=CC1)C(=O)O (centres undefined) | > 100 µM | > 100 µM | > 100 µM | > 100 µM | > 100 µM | > 100 µM | > 100 µM | > 100 µM | > 100 | > 100 | > 100 | > 100 |  |  |  |  |  |  | 
8 | O=C(CSCC(=O)N/N=C/c1ccccc1)N/N=C\c1ccccc1 | > 100 µM | > 100 µM | > 100 µM | > 100 µM | > 100 µM | > 100 µM | > 100 µM | > 100 µM | > 100 | > 100 |  | > 100 |  |  |  |  |  |  | 
9 | CCCCCCCCCCCCCCCCCCNc1ccn(C2OC(CO)C(OP(=O)(O)OCC(O)COP(=O)(O)OCC3OC(n4cc(F)c(NCCCCCCCCCCCCCCCCCC)nc4=O)CC3O)C2O)c(=O)n1 (centres undefined) | > 50 µM | > 50 µM | > 50 µM | > 50 µM |  | > 50 µM | > 50 µM | > 50 µM | > 50 | > 50 |  | > 50 |  |  |  |  |  |  | 
10 | CC[C@@]1(O)C(=O)OCc2c1cc1n(c2=O)Cc2cc3ccccc3nc2-1 | 0.0322 µM | 0.131 µM | 0.839 µM | 1.04 µM | 0.126 µM | 4.01 µM | 0.0591 µM | 1.22 µM | 1.8 |  | 0.0769 | 0.635 | 0.111 | < 0.01 | 0.34 |  |  |  | 
11 | OCC(O)CNc1ncnc2ccccc12 (centres undefined) | > 100 µM | > 100 µM | > 100 µM | > 100 µM | > 100 µM | > 100 µM |  | > 100 µM | > 100 | > 100 |  | > 100 |  |  |  |  |  |  | 
12 | CCCCCCCCCCCCCC1=C(O)C(=O)C(CC2=C(O)C(=O)C(CCCCCCCCCCCCC)=C(O)C2=O)=C(O)C1=O | > 100 µM | > 100 µM | > 100 µM | > 100 µM | 32.2 µM | > 100 µM | > 100 µM | > 100 µM | > 100 | > 100 | > 100 | > 100 |  |  |  |  |  |  | 
13 | CN(CC(=O)O)Cc1c(O)c(Cl)cc(Cl)c1Cl | > 100 µM | > 100 µM | > 100 µM | > 100 µM | > 100 µM | > 100 µM | > 100 µM | > 100 µM | > 100 | > 100 | 90.9 | > 100 |  |  |  |  |  |  | 
14 | Clc1cc(Cl)c2cc3cccc[n+]3cc2c1Cl | 21 µM | 21.7 µM | 30.7 µM | 38.7 µM |  | 26.5 µM | 32.4 µM | 30.1 µM | 39 | 48.9 | 32.9 | 23.9 |  |  |  |  |  |  | 
15 | OC[C@H]1NC[C@@H](O)[C@@H](O)[C@H]1O | > 100 µM | > 100 µM | > 100 µM | > 100 µM | > 100 µM |  |  | > 100 µM | > 100 | > 100 | > 100 | > 100 |  |  |  |  |  |  | 
16 | C[C@@H]1C(=O)O[C@H]1[C@H](O)CO | > 100 µM | > 100 µM |  | > 100 µM | > 100 µM |  |  | > 100 µM | > 100 |  |  | > 100 |  |  |  |  |  |  | 
17 | Nc1[nH]c(=S)nc2nc3c(c(-c4ccccc4)c12)CCCC3 | > 100 µM |  | > 100 µM | > 100 µM |  | > 100 µM | > 100 µM |  | > 100 | > 100 | > 100 | > 100 |  |  |  |  |  |  | 
18 | CCN(CC)CC[n+]1ccc2c(C)c3[nH]c4ccc(O)cc4c3c(C)c2c1 | 49.6 µM and 16.3 µM | 32.6 µM and 12.4 µM | 41.1 µM and > 67.5 µM | 72.6 µM and 73.8 µM | 56.5 µM and 57.2 µM | 7.3 µM and 7.53 µM | 19 µM and 31.8 µM | 32 µM and 54.2 µM | 34.9 | 36.6 | 1.74 | 12.3 |  | 0.685 | 20.8 | 3.41 | 2.33 | 12.6 | 13.9
19 | COC(=O)C1=C(C)N2CCSC2(C)C(C(=O)OC)C1c1cccc(Cl)c1 (centres undefined) | 70 µM | 53.2 µM | 33.4 µM |  | 53.5 µM | 43.7 µM | 24.9 µM | 34.2 µM | 89.3 |  | 66.7 |  |  |  |  |  |  |  | 
